According to patent publication US9187484B2 (Southern Research Institute, priority 2012, dated 2015):

Each compound was assayed against T1, LRRK2 (G2019S) (Homo sapiens, UniProt Q5S007, G2019S) (assay: LRRK2 inhibition, radiometric kinase assay with recombinant GST-LRRK2 (delta970) and peptide substrate). Conditions: GST-LRRK2 (delta970) G2019S 30 nM, ATP ~52 μM (Km), 30 min at 30° C.
T1 construct: Recombinant GST-LRRK2 (delta970), purified from baculovirus infected insect cells (SF9); GST (N); host or cells: baculovirus infected insect cells (SF9)
T1 sequence (Q5S007 970-2527 G2019S limits assumed): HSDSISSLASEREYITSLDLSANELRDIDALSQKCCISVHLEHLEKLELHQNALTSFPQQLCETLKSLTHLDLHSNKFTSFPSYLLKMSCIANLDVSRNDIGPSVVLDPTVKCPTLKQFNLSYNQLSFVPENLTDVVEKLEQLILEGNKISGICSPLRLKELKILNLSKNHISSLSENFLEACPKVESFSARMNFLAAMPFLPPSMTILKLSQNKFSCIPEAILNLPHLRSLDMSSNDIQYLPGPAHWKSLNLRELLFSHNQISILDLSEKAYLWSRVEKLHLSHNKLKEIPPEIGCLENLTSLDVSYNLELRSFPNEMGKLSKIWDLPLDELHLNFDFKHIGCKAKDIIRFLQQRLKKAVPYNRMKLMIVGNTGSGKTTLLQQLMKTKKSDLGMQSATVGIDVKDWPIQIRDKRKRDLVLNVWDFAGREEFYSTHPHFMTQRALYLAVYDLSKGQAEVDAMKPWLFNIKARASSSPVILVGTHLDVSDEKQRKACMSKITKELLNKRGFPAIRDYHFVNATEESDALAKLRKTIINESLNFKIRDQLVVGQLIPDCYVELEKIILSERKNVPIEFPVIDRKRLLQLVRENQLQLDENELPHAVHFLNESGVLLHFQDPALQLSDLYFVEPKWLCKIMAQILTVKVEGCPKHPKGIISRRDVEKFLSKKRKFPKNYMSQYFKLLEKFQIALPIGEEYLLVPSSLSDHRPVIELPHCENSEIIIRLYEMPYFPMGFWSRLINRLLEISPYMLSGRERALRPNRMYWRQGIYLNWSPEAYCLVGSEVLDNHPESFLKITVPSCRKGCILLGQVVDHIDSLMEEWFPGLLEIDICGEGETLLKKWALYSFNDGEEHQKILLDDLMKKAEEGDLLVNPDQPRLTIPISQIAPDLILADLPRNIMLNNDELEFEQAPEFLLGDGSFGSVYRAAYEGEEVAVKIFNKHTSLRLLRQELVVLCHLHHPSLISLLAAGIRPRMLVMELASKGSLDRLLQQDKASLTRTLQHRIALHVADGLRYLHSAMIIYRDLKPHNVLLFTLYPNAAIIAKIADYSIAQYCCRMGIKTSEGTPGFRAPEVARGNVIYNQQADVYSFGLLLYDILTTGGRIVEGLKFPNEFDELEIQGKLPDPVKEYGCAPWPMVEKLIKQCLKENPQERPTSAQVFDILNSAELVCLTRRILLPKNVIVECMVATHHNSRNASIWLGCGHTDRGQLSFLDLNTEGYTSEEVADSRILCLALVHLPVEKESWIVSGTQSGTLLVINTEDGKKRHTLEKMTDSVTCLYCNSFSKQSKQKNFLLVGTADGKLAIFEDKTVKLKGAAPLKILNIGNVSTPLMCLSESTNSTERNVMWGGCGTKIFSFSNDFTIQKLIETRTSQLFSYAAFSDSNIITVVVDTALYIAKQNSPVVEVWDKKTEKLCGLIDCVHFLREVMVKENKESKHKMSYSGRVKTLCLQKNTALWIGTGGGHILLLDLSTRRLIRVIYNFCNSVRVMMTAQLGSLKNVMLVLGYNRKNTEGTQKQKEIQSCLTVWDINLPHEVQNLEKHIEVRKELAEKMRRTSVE
Format: biochemical
Protocol: Compounds were assessed for inhibition of LRRK2 inhibition using the following procedure.
Recombinant GST-LRRK2 (delta970), purified from baculovirus infected insect cells (SF9), at least 90% pure and either wild-type sequence or bearing the pathogenic G2019S mutation, was combined into a kinase buffer at 30 nM concentration. Kinase buffer consists of 50 mM Tris HCl pH 7.4, 1 mM EDTA, and 50 μM peptide substrate (amino acid sequence […]). Experimental compounds or control (no compound) were added at desired concentrations in DMSO and water, where final concentration of DMSO in kinase reactions was 0.1% for all drug concentrations. Activation buffer that consists of a final concentration in the reactions of 10 mM MgCl2 and ATP (˜92 μM for WT-LRRK2 reactions and ˜52 μM for G2019S-LRRK2, which represent respective Km ATP concentrations) were added to each reaction, in addition to 0.5 μCi of gamma-32-P-dATP per reaction. Reactions were incubated at 1400 RPM at 30° C. for 30 min. and then spotted in triplicate directly onto a slot-blot apparatus fitted with phospho-cellulose paper and allowed to dry. Each slot was then washed with 10 mM phosphoric acid buffer until beta-radiation could not be detected in eluted wash buffer, usually ˜1 mL per slot. Paper within each slot were excised and radiation measured by liquid scintillation.
In the case of CCC(Sc1ccc2nnc(-c3cccs3)n2n1)C(=O)N1CCCCC1 (stereo not drawn) [Example 34, 1-(piperidin-1-yl)-2-((3-(thiophen-2-yl)-[1,2,4]triazolo[4,3-b]pyridazin-6-yl)thio)butan-1-one], the IC50 is reported as less than 100 nM. For CCC(Oc1ccc2nnc(-c3cccs3)n2n1)C(N)=O (stereo not drawn) [Example 84, 2-((3-(thiophen-2-yl)-[1,2,4]triazolo[4,3-b]pyridazin-6-yl)oxy)butanamide], the IC50 was no less than 5000 nM. CCC(Oc1ccc2nnc(-c3cccs3)n2n1)C(=O)N1CCCCC1 (stereo not drawn) [Example 85, 1-(piperidin-1-yl)-2-((3-(thiophen-2-yl)-[1,2,4]triazolo[4,3-b]pyridazin-6-yl)oxy)butan-1-one] showed an IC50 of no less than 5000 nM. For CCC(Sc1ccc2nnc(-c3cccs3)n2n1)C(=O)Nc1ccccc1 (stereo not drawn) [Example 86, N-phenyl-2-((3-(thiophen-2-yl)-[1,2,4]triazolo[4,3-b]pyridazin-6-yl)thio)butanamide], the IC50 was no less than 5000 nM. Work on CCc1ccc(-c2nnc3ccc(SC(CC)C(=O)N4CCCCC4)nn23)s1 (stereo not drawn) [Example 87, 2-((3-(5-ethylthiophen-2-yl)-[1,2,4]triazolo[4,3-b]pyridazin-6-yl)thio)-1-(piperidin-1-yl)butan-1-one] yielded an IC50 of 100 to 1000 nM. CCc1ccc(-c2cnc3ccc(SC(CC)C(=O)O)nn23)s1 (stereo not drawn) [Example 88, 2-((3-(5-ethylthiophen-2-yl)imidazo[1,2-b]pyridazin-6-yl)thio)butanoic acid] showed an IC50 of 1000 to 5000 nM. With CCC(Sc1ccc2nnc(-c3ccc(C)s3)n2n1)C(=O)O (stereo not drawn) [Example 89, 2-((3-(5-methylthiophen-2-yl)-[1,2,4]triazolo[4,3-b]pyridazin-6-yl)thio)butanoic acid] the IC50 was 100 to 1000 nM. NC(=O)CS(=O)(=O)c1ccc2nnc(-c3cccs3)n2n1 [Example 91, 2-((3-(thiophen-2-yl)-[1,2,4]triazolo[4,3-b]pyridazin-6-yl)sulfonyl)acetamide] showed an IC50 of 1000 to 5000 nM. In the case of CCCC(Sc1ccc2nnc(-c3cccs3)n2n1)C(=O)O (stereo not drawn) [Example 92, 2-((3-(thiophen-2-yl)-[1,2,4]triazolo[4,3-b]pyridazin-6-yl)thio)pentanoic acid], the IC50 is reported as 100 to 1000 nM. Work on CCCC(Sc1ccc2nnc(-c3cccs3)n2n1)C(=O)N1CCCCC1 (stereo not drawn) [Example 93, 1-(piperidin-1-yl)-2-((3-(thiophen-2-yl)-[1,2,4]triazolo[4,3-b]pyridazin-6-yl)thio)pentan-1-one] yielded an IC50 of 100 to 1000 nM. In the case of CCC(Sc1ccc2nnc(-c3ccccc3F)n2n1)C(=O)N1CCCCC1 (stereo not drawn) [Example 94, 2-((3-(2-fluorophenyl)-[1,2,4]triazolo[4,3-b]pyridazin-6-yl)thio)-1-(piperidin-1-yl)butan-1-one], the IC50 is reported as 100 to 1000 nM. For CCC(Sc1ccc2nnc(-c3ccc(C(F)(F)F)cc3)n2n1)C(=O)N1CCCCC1 (stereo not drawn) [Example 95, 1-(piperidin-1-yl)-2-((3-(4-(trifluoromethyl)phenyl)-[1,2,4]triazolo[4,3-b]pyridazin-6-yl)thio)butan-1-one], the IC50 was 1000 to 5000 nM. CCC(Sc1ccc2nnc(-c3ccc(F)c(F)c3)n2n1)C(=O)N1CCCCC1 (stereo not drawn) [Example 96, 2-((3-(3,4-difluorophenyl)-[1,2,4]triazolo[4,3-b]pyridazin-6-yl)thio)-1-(piperidin-1-yl)butan-1-one] showed an IC50 of 100 to 1000 nM. In the case of CCC(Sc1ccc2nnc(-c3cccc(F)c3)n2n1)C(=O)N1CCCCC1 (stereo not drawn) [Example 97, 2-((3-(3-fluorophenyl)-[1,2,4]triazolo[4,3-b]pyridazin-6-yl)thio)-1-(piperidin-1-yl)butan-1-one], the IC50 is reported as 100 to 1000 nM. For CCC(Nc1ccc2nnc(-c3cccs3)n2n1)C(=O)OC (stereo not drawn) [Example 98, methyl 2-((3-(thiophen-2-yl)-[1,2,4]triazolo[4,3-b]pyridazin-6-yl)amino)butanoate], the IC50 was no less than 5000 nM. In the case of CCC(Nc1ccc2nnc(-c3cccs3)n2n1)C(N)=O (stereo not drawn) [Example 99, 2-((3-(thiophen-2-yl)-[1,2,4]triazolo[4,3-b]pyridazin-6-yl)amino)butanamide], the IC50 is reported as no less than 5000 nM. For CCC(Nc1ccc2nnc(-c3cccs3)n2n1)C(=O)N1CCCCC1 (stereo not drawn) [Example 100, 1-(piperidin-1-yl)-2-((3-(thiophen-2-yl)-[1,2,4]triazolo[4,3-b]pyridazin-6-yl)amino)butan-1-one], the IC50 was no less than 5000 nM. Compound CC(Sc1ccc2nnc(-c3cccs3)n2n1)C(=O)N1CCC1 (stereo not drawn) [Example 101, 1-(azetidin-1-yl)-2-((3-(thiophen-2-yl)-[1,2,4]triazolo[4,3-b]pyridazin-6-yl)thio)propan-1-one] has an IC50 of less than 100 nM. CCOC(=O)C1CCCN(C(=O)C(CC)Sc2ccc3nnc(-c4cccs4)n3n2)C1 (stereo not drawn) [Example 103, ethyl 1-(2-((3-(thiophen-2-yl)-[1,2,4]triazolo[4,3-b]pyridazin-6-yl)thio)butanoyl)piperidine-3-carboxylate] showed an IC50 of 1000 to 5000 nM. In the case of CCC(Sc1ccc2nnc(-c3cccs3)n2n1)C(=O)N1CCCCC1C (stereo not drawn) [Example 104, 1-(2-methylpiperidin-1-yl)-2-((3-(thiophen-2-yl)-[1,2,4]triazolo[4,3-b]pyridazin-6-yl)thio)butan-1-one], the IC50 is reported as 100 to 1000 nM. CC(Sc1ccc2nnc(-c3cccs3)n2n1)C(=O)N1CCCC1 (stereo not drawn) [Example 105, 1-(pyrrolidin-1-yl)-2-((3-(thiophen-2-yl)-[1,2,4]triazolo[4,3-b]pyridazin-6-yl)thio)propan-1-one] showed an IC50 of less than 100 nM. Work on CCC(Sc1ccc2nnc(-c3ccccc3)n2n1)C(=O)N1CCCCC1 (stereo not drawn) [Example 106, 2-((3-phenyl-[1,2,4]triazolo[4,3-b]pyridazin-6-yl)thio)-1-(piperidin-1-yl)butan-1-one] yielded an IC50 of 100 to 1000 nM. In the case of CC(C)(Sc1ccc2nnc(-c3cccs3)n2n1)C(=O)N1CCCC1 [Example 107, 2-methyl-1-(pyrrolidin-1-yl)-2-((3-(thiophen-2-yl)-[1,2,4]triazolo[4,3-b]pyridazin-6-yl)thio)propan-1-one], the IC50 is reported as 1000 to 5000 nM. Compound CC(Sc1ccc2nnc(-c3cnccn3)n2n1)C(=O)N1CCCCC1 (stereo not drawn) [Example 108, 1-(piperidin-1-yl)-2-((3-(pyrazin-2-yl)-[1,2,4]triazolo[4,3-b]pyridazin-6-yl)thio)propan-1-one] has an IC50 of 100 to 1000 nM. Compound CC(Sc1ccc2nnc(-c3ncccn3)n2n1)C(=O)N1CCCCC1 (stereo not drawn) [Example 109, 1-(piperidin-1-yl)-2-((3-(pyrimidin-2-yl)-[1,2,4]triazolo[4,3-b]pyridazin-6-yl)thio)propan-1-one] has an IC50 of 100 to 1000 nM. For CC(Sc1ccc2nnc(-c3cscn3)n2n1)C(=O)N1CCCCC1 (stereo not drawn) [Example 110, 1-(piperidin-1-yl)-2-((3-(thiazol-4-yl)-[1,2,4]triazolo[4,3-b]pyridazin-6-yl)thio)propan-1-one], the IC50 was 100 to 1000 nM. Work on CC(Sc1ccc2nnc(-c3cscn3)n2n1)C(=O)N1CCCC1 (stereo not drawn) [Example 111, 1-(pyrrolidin-1-yl)-2-((3-(thiazol-4-yl)-[1,2,4]triazolo[4,3-b]pyridazin-6-yl)thio)propan-1-one] yielded an IC50 of 100 to 1000 nM. CC(Sc1ccc2nnc(-c3ccnn3C)n2n1)C(=O)N1CCCCC1 (stereo not drawn) [Example 112, 2-((3-(1-methyl-1H-pyrazol-5-yl)-[1,2,4]triazolo[4,3-b]pyridazin-6-yl)thio)-1-(piperidin-1-yl)propan-1-one] gave an IC50 of no less than 5000 nM. Work on CC(Sc1ccc2nnc(-c3ccn(C)n3)n2n1)C(=O)N1CCCCC1 (stereo not drawn) [Example 113, 2-((3-(1-methyl-1H-pyrazol-3-yl)-[1,2,4]triazolo[4,3-b]pyridazin-6-yl)thio)-1-(piperidin-1-yl)propan-1-one] yielded an IC50 of 100 to 1000 nM. CCC(Sc1ccc2nnc(-c3cccs3)n2n1)C(=O)N1CCC1 (stereo not drawn) [Example 114, 1-(azetidin-1-yl)-2-((3-(thiophen-2-yl)-[1,2,4]triazolo[4,3-b]pyridazin-6-yl)thio)butan-1-one] gave an IC50 of 100 to 1000 nM. CC(Sc1ccc2nnc(-c3ccn[nH]3)n2n1)C(=O)N1CCCCC1 (stereo not drawn) [Example 115, 2-((3-(1H-pyrazol-5-yl)-[1,2,4]triazolo[4,3-b]pyridazin-6-yl)thio)-1-(piperidin-1-yl)propan-1-one] showed an IC50 of 100 to 1000 nM. Work on CCCN(CCC)C(=O)C(C)Sc1ccc2nnc(-c3cccs3)n2n1 (stereo not drawn) [Example 123, N,N-dipropyl-2-((3-(thiophen-2-yl)-[1,2,4]triazolo[4,3-b]pyridazin-6-yl)thio)propanamide] yielded an IC50 of 1000 to 5000 nM. CC(Sc1ccc2nnc(-c3nccs3)n2n1)C(=O)O (stereo not drawn) [Example 124, 2-((3-(thiazol-2-yl)-[1,2,4]triazolo[4,3-b]pyridazin-6-yl)thio)propanoic acid] was tested, and the IC50 was 100 to 1000 nM. Compound CC(Sc1ccc2nnc(-c3nccs3)n2n1)C(=O)N1CCCCC1 (stereo not drawn) [Example 125, 1-(piperidin-1-yl)-2-((3-(thiazol-2-yl)-[1,2,4]triazolo[4,3-b]pyridazin-6-yl)thio)propan-1-one] has an IC50 of 100 to 1000 nM. With CC(Sc1ccc2nnc(-c3nccs3)n2n1)C(=O)N1CCC1 (stereo not drawn) [Example 126, 1-(azetidin-1-yl)-2-((3-(thiazol-2-yl)-[1,2,4]triazolo[4,3-b]pyridazin-6-yl)thio)propan-1-one] the IC50 was 100 to 1000 nM.

Each compound was assayed on WT-LRRK2 or G2019S-LRRK2 (assay: Inhibition of LRRK2 phosphorylation (pS935 antibody) in lysates of transfected HEK-293T cells). Conditions: HEK-293T cells transiently transfected with either WT-LRRK2 or G2019S-LRRK2.
Format: cell-based
From the text: To test whether Example 90 and Example 34 can inhibit LRRK2 phosphorylation, an antibody commercially available from Epitomics directed against the serine residue number 935 on LRRK2 from lysates generated from HEK-293T cells transiently transfected with either WT-LRRK2 or G2019S-LRRK2 protein.
CCC(Sc1ccc2nnc(-c3cccs3)n2n1)C(=O)N1CCCCC1 (stereo not drawn) [Example 34, 1-(piperidin-1-yl)-2-((3-(thiophen-2-yl)-[1,2,4]triazolo[4,3-b]pyridazin-6-yl)thio)butan-1-one] was tested, and the “levels of pS935 on LRRK2” value was “partially inhibited”.
